Results reported in PMC6155332, “Antimalarials with Benzothiophene Moieties as Aminoquinoline Partners” (Molecules : A Journal of Synthetic Chemistry and Natural …, 2017).
Several values for one entry are separate records, joined by “and”; a condition that tells them apart may be missing. Identical values can stand only once.

What was measured:
[1] = system: P. falciparum D6 (CQ susceptible (CQS) strain); design: method as in PMID 26640981, PMID 25801154; settings: previously reported compounds; ref [27],[28]; cited from earlier work
β-hematin formation = test: Inhibition of β-hematin formation (BHIA assay); type: biochemical; settings: molar equivalent of compound, relative to hemin, that inhibits β-hematin formation by 50%
From the text: [33] The inhibition of β-hematin formation is expressed as the molar equivalent of compound, relative to hemin, that inhibits β-hematin formation by 50% and determined by slightly modified BHIA assay introduced by ParapiniS.BasilicoN.PasiniE.EganT.J.OlliaroP.TaramelliD.MontiD.Standardization of the physicochemical parameters to assess in vitro the beta-hematin inhibitory activity of antimalarial drugsExp. Parasitol.200096249256

P. berghei DNA = test: qPCR of blood and liver of treated mice for Plasmodium 18S rRNA gene; type: in vivo, Plasmodium berghei; settings: mice treated 160 mg/kg/day × 3 days, alive past day 31
From the text: Briefly, genomic DNA was extracted from the blood and liver of experimental animals using the DNeasy blood and tissue kit (Qiagen, Hilden, Germany) according to the manufacturer’s instructions. The primers and corresponding TaqMan (Applied BioSystems. Foster City, CA, USA) probe amplify and detect a highly conserved region of the 18S rRNA gene of the genus Plasmodium. Pure P. berghei gDNA samples were used as positive controls.
Genomic DNA was extracted from the blood and liver of experimental animals using the DNeasy blood and tissue kit (Qiagen, Hilden, Germany) according to the manufacturer’s instructions. Briefly, mice alive past day 31 with complete parasite clearance were sacrificed. Next, between 300 and 500 μL of blood was removed after heart puncture and the organs were removed, rinsed with dPBS and homogenized. The liver was homogenized using mechanical disruption and then subjected to proteinase K digestion. Approximately 100 μL of sample was used per each spin column for gDNA extraction.
Briefly, the primers and corresponding TaqMan probe amplify and detect a highly conserved region of the 18S rRNA gene of the genus Plasmodium. The primer and probe sequences were as follows: forward primer Plasmo 1: 5-[…] TCAGA-3; reverse primer Plasmo 2: 5-[…] TCATAA-3; TaqMan probe Plasprobe: 5-FAM-[…] GACTAG-TAMRA-3. […]

P. berghei (ANKA) = test: Modified Thompson test, P. berghei mouse efficacy; type: in vivo, Plasmodium berghei; settings: for Parasitemia D18: day 18; for Parasitemia D21: day 21; for Parasitemia D25: day 25; for Parasitemia D28: day 28; for Parasitemia D11: day 11; for Mean Survival Time (MST, Days) / Mice Alive on Day 31 / Mice Dead/Day Died: infected mice
Protocol: In a separate host toxicity study, benzothiophene 25 was subjected to in vivo toxicity evaluation. […]
The P. berghei (ANKA) mouse efficacy tests were conducted using a modified version of the Thompson test. Groups of five mice were inoculated intraperitoneally with erythrocytes infected with P. berghei on day 0. Drugs were suspended in 0.5% hydroxyethylcellulose-0.1% Tween 80 and administered orally once a day beginning on day 3 post infection. […] Cure was defined as survival (with no parasitemia) until day 31 post-treatment. Parasitemia was determined by thin-blood Giemsa-stained smears prepared from mice tail blood of each animal on days 0, 3, 6, 10, 13, 17, 20, 24, 27, and 31 (postinfection). The slides were examined under a light microscope.

[2] = system: HepG2 (hepatocellular carcinoma) cell line; design: method as in PMID 26640981; settings: previously reported compounds; ref [27]; cited from earlier work
healthy mice = test: Host toxicity study in healthy mice; type: in vivo; settings: groups of 5 healthy mice, 160 mg/kg/day × 3 days
Protocol: In a separate host toxicity study, groups of five healthy mice were administered 160 mg/kg/day × 3 days of the investigational compounds and individually monitored for behavior and appearance two times a day for 31 days. No toxicity was defined as survival past day 31 with no overt clinical manifestations of toxicity (changes in behavior and appearance).

[3] = system: P. falciparum W2 (CQ resistant (CQR) strain); design: method as in PMID 26640981; settings: previously reported compounds; ref [27]; cited from earlier work
[4] = 20 mg/kg/day p.o., days 3–6 postinfection
[5] = 40 mg/kg/day p.o., days 3–6 postinfection
[6] = 80 mg/kg/day p.o., days 3–6 postinfection
[7] = 160 mg/kg/day p.o., days 3–5 postinfection

Clc1ccc2c(NCCCCNCc3csc4ccccc34)ccnc2c1 [Compound 1]
IC50 [1]: 8 nM | IC50 of inhibition of β-hematin formation (β-hematin formation): 0.34 molar equivalent | P. berghei DNA in blood and tissue samples (qPCR) (P. berghei DNA): negative | Parasitemia D18 (P. berghei (ANKA); 20 mg/kg/day p.o. days 3–6): 6% | Parasitemia D21 (P. berghei (ANKA); 20 mg/kg/day p.o. days 3–6): 27% | Parasitemia D25 (P. berghei (ANKA); 20 mg/kg/day p.o. days 3–6): 63% | Parasitemia D28 (P. berghei (ANKA); 20 mg/kg/day p.o. days 3–6): 66% | Cure (4 days therapy) (P. berghei (ANKA); 20 mg/kg/day): no cure | Parasitemia D7 (P. berghei (ANKA); 40 mg/kg/day p.o. days 3–6, day 7, positive mice): 5 mice negative | Parasitemia D11 (P. berghei (ANKA); 40 mg/kg/day p.o. days 3–6): no detectable parasitemia and 5 mice negative | Parasitemia D18 (P. berghei (ANKA); 40 mg/kg/day p.o. days 3–6): 2.2% | Parasitemia D21 (P. berghei (ANKA); 40 mg/kg/day p.o. days 3–6): 7.3% | Parasitemia D25 (P. berghei (ANKA); 40 mg/kg/day p.o. days 3–6): 37% | Parasitemia D28 (P. berghei (ANKA); 40 mg/kg/day p.o. days 3–6): 53% | Parasitemia D7 (P. berghei (ANKA); 80 mg/kg/day p.o. days 3–6, day 7, positive mice): 4 mice negative | Parasitemia D11 (P. berghei (ANKA); 80 mg/kg/day p.o. days 3–6): 4 mice negative | Parasitemia D18 (P. berghei (ANKA); 80 mg/kg/day p.o. days 3–6): 2.3% | Parasitemia D7 (P. berghei (ANKA); 160 mg/kg/day p.o. days 3–5, day 7): cleared all parasites | Parasitemia D31 (P. berghei (ANKA); 160 mg/kg/day p.o. days 3–5, day 31 (end of study)): parasite negative | Parasitemia D7–D31 (P. berghei (ANKA); 160 mg/kg/day p.o. days 3–5, days 7–31): 5 mice negative | Parasite clearance in dose response test (P. berghei (ANKA); 80, 40 and 20 mg/kg/day p.o. for 4 days, starting day 3 postinfection): did not clear the parasites | Cure (4 days therapy) (P. berghei (ANKA); 80 and 40 mg/kg/day, clearance with recrudescence on D11-14): no cure | Mice cured (modified Thompson test, 3 days therapy) (P. berghei (ANKA); P. berghei infected mice, 160 mg/kg/day × 3 days p.o.): 5/5 | Mean Survival Time (MST, Days) (P. berghei (ANKA); [4]): 16.8 days | Mice Alive on Day 31 (P. berghei (ANKA); [4]): 0/5 | Mice Dead/Day Died (P. berghei (ANKA); 20 mg/kg/day p.o., days 3–6 postinfection, 20 mg/kg/day): 2/11 and 1/14 and 1/18 and 1/30 | Mean Survival Time (MST, Days) (P. berghei (ANKA); [5]): 19.4 days | Mice Alive on Day 31 (P. berghei (ANKA); [5]): 0/5 | Mice Dead/Day Died (P. berghei (ANKA); 40 mg/kg/day p.o., days 3–6 postinfection, 40 mg/kg/day): 1/30 and 1/15 and 1/16 and 2/18 | Mean Survival Time (MST, Days) (P. berghei (ANKA); [6]): 18.2 days | Mice Alive on Day 31 (P. berghei (ANKA); [6]): 0/4 | Mice Dead/Day Died (P. berghei (ANKA); 80 mg/kg/day p.o., days 3–6 postinfection, 80 mg/kg/day): 3/18 and 1/19 | Mean Survival Time (MST, Days) (P. berghei (ANKA); [7]): >31 days | Mice Alive on Day 31 (P. berghei (ANKA); [7]): 5/5 | SI(HepG2/D6) [2]: 282 | Mice survived in host toxicity study (healthy mice): 5/5 | IC50 [3]: 31 nM
